This passage reports fitness results from the supplement of paper PMC10627819.

One assay has as its system S. aureus Newman. The experiment in a line: fitness (endpoint OD595 vs no drug) (fraction); higher = more growth. A digest of the protocol: (§1)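 Bacterial fitness was scored as optical density at the stationary-phase transition relative to the robust mean of no-drug control wells. Scores are capped at 1. The growth data were OD595 readings every 30 min for 14 h at 37 °C, background-subtracted against the first reading, from 384-well plates inoculated at OD595 0.01 in TSB, LB Lennox or CY.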

For another assay, the system named is S. pneumoniae D39V. Described as above. The method in brief: as §1

SMILES strings stand for the structures.
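Further: OD595 on entry to stationary phase over no-drug wells; at most 1.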

On to `CO[C@@]12[C@H](COC(N)=O)C3=C(C(=O)C(C)=C(N)C3=O)N1C[C@@H]1N[C@@H]12` [Mitomycin C] + C/C(=C\C(=O)OCCCCCCCCC(=O)O)C[C@@H]1OC[C@H](C[C@@H]2O[C@H]2[C@@H](C)[C@H](C)O)[C@@H](O)[C@H]1O [Pseudomonic acid], for which the fitness in the assay with S. aureus Newman (first compound 0.0156 µg/mL, partner 0.0313 µg/mL, one replicate) was 0.0474; in the assay on S. aureus Newman (first compound 0.0156 µg/mL, partner 0.0625 µg/mL, one replicate), 0.0185; with S. aureus Newman (first compound 0.0156 µg/mL, partner 0.125 µg/mL, one replicate), 0.0351; in the assay with S. aureus Newman (first compound 0.0312 µg/mL, partner 0.0313 µg/mL, one replicate) it was 0.0196; with S. aureus Newman (first compound 0.0312 µg/mL, partner 0.0625 µg/mL, one replicate) it was 0.0244; with S. aureus Newman (first compound 0.0312 µg/mL, partner 0.125 µg/mL, one replicate), 0.0217. In addition, the fitness came to 0.0148 in the assay on S. aureus Newman (first compound 0.0625 µg/mL, partner 0.0313 µg/mL, one replicate); 0.0093 in the assay on S. aureus Newman (first compound 0.0625 µg/mL, partner 0.0625 µg/mL, one replicate); 0.029 with S. aureus Newman (first compound 0.0625 µg/mL, partner 0.125 µg/mL, one replicate); 0.914 with S. pneumoniae D39V (first compound 0.001075 µg/mL, partner 0.03 µg/mL); 0.806 in the assay with S. pneumoniae D39V (first compound 0.001075 µg/mL, partner 0.06 µg/mL); 0.587 in the assay with S. pneumoniae D39V (first compound 0.001075 µg/mL, partner 0.12 µg/mL). Also, the fitness in the assay on S. pneumoniae D39V (first compound 0.002 µg/mL, partner 0.03 µg/mL) worked out at 0.855; in the assay with S. pneumoniae D39V (first compound 0.002 µg/mL, partner 0.06 µg/mL), 0.725; with S. pneumoniae D39V (first compound 0.002 µg/mL, partner 0.12 µg/mL), 0.549; in the assay on S. pneumoniae D39V (first compound 0.00215 µg/mL, partner 0.03 µg/mL), 0.919; in the assay on S. pneumoniae D39V (first compound 0.00215 µg/mL, partner 0.06 µg/mL) it was 0.795; in the assay with S. pneumoniae D39V (first compound 0.00215 µg/mL, partner 0.12 µg/mL) it was 0.584. The fitness in the assay on S. pneumoniae D39V (first compound 0.004 µg/mL, partner 0.03 µg/mL) amounted to 0.741; with S. pneumoniae D39V (first compound 0.004 µg/mL, partner 0.06 µg/mL), 0.64; in the assay with S. pneumoniae D39V (first compound 0.004 µg/mL, partner 0.12 µg/mL) it was 0.498; with S. pneumoniae D39V (first compound 0.0043 µg/mL, partner 0.03 µg/mL), 0.818; in the assay with S. pneumoniae D39V (first compound 0.0043 µg/mL, partner 0.06 µg/mL), 0.731; in the assay on S. pneumoniae D39V (first compound 0.0043 µg/mL, partner 0.12 µg/mL), 0.51. For the same compound, the fitness with S. pneumoniae D39V (first compound 0.008 µg/mL, partner 0.03 µg/mL) came out at 0.612; with S. pneumoniae D39V (first compound 0.008 µg/mL, partner 0.06 µg/mL), 0.523; in the assay with S. pneumoniae D39V (first compound 0.008 µg/mL, partner 0.12 µg/mL), 0.322.
Regarding `CO[C@@]12[C@H](COC(N)=O)C3=C(C(=O)C(C)=C(N)C3=O)N1C[C@@H]1N[C@@H]12` [Mitomycin C] + CC1(C)S[C@@H]2[C@H](NC(=O)Cc3ccccc3)C(=O)N2[C@H]1C(=O)O [Penicillin G], the fitness with S. aureus Newman (first compound 0.0156 µg/mL, partner 0.0195 µg/mL) was 0.671; in the assay on S. aureus Newman (first compound 0.0156 µg/mL, partner 0.039 µg/mL) it was 0.646; in the assay on S. aureus Newman (first compound 0.0156 µg/mL, partner 0.078 µg/mL) it was 0.636; in the assay on S. aureus Newman (first compound 0.0312 µg/mL, partner 0.0195 µg/mL), 0.562; in the assay with S. aureus Newman (first compound 0.0312 µg/mL, partner 0.039 µg/mL), 0.556; in the assay on S. aureus Newman (first compound 0.0312 µg/mL, partner 0.078 µg/mL), 0.564. Besides, the fitness in the assay on S. aureus Newman (first compound 0.0625 µg/mL, partner 0.0195 µg/mL) was 0.441; in the assay with S. aureus Newman (first compound 0.0625 µg/mL, partner 0.039 µg/mL) it was 0.389; in the assay with S. aureus Newman (first compound 0.0625 µg/mL, partner 0.078 µg/mL), 0.412.
